Assay results taken from US20260053836A1, “CHRONIC WOUND HEALING COMPOSITION AND APPLICATION THEREOF” (priority 2019, published 2026).

Key:
[1] = test system: Staphylococcus aureus; settings: Guillermo et al., 1999; cited from earlier work
[2] = test system: HaCaT cells; assay: Cell migration assay of HaCaT cells in high glucose culture; assay type: cell-based, human; settings: high glucose (25 mM), 48 hours, control group taken as 1
Description: Human dermal fibroblasts (HDF cells) or human keratinocytes (HuCaT cells) were cultured in a humid incubator at 37° C. in an environment of 5% carbon dioxide and […] and placed in Dulbecco's modified Eagle's medium (DMEM) supplemented with glucose, 10% fetal bovine serum, 100 IU/mL penicillin, 100 μg/mL streptomycin, 2 mM sodium pyruvate and 1% nonessential amino acids (NEAA). The medium was changed every two days. For subculture, cells were harvested and re-cultured at a 1:10 dilution after exposure to 0.1% Trypsin-EDTA mixture. The cells used in the study ranged from 12 to 40 passages. 24 hours before drug treatment, cells were seeded and left for 24 hours. The control group was maintained in the medium and […]. Under this culture condition, cell growth and differentiation are not affected.
HaCaT cells were cultured at 1×10^5 with addition of 25 mM glucose in a 24-well culture dish for 48 hours, and the following drugs were added to observe the cell migration state: • Con: the control group; • BO 18.8 μM+A 16.0 μM; • BSG 14.2 μM+A 16.0 μM; • BO 18.8 μM+BSG 14.2 μM; • All: A 16.0 μM+BO 18.8 μM+BSG 14.2 μM.

| Compound | antibacterial efficacy [1] | cell migration [2] |
| --- | --- | --- |
| C[C@@H]1O[C@@H](O[C@@H]2[C@@H](O)[C@H](OCCc3ccc(O)c(O)c3)O[C@H](CO)[C@H]2OC(=O)/C=C/c2ccc(O)c(O)c2)[C@H](O)[C@H](O)[C@H]1O [Acteosides, Acteoside] | good antibacterial efficacy | – |
| CC1(C)C2CCC1(C)C(O)C2 (stereo not drawn) [BO, Borneal] | – | no promoting effect |
| O=C(O)c1cc(O)c2c(c1)[O][Bi]([OH])[O]2 [BSG, Bismuth subgallate] | – | no promoting effect |
